Several values for one entry are separate records, joined by “and”; a condition that tells them apart may be missing. Equal values may be shown once.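 48-hour exposure; five concentrations; linearly interpolated endpoints. GI50 marks 50% less growth. At the TGI there is no net growth.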
Assays:
Assay in all cases: growth of human tumour cells (NCI), 48 h
[1] = tested on: HL-60(TB) leukemia
[2] = tested on: K-562 leukemia
[3] = tested on: MOLT-4 leukemia
[4] = tested on: NCI-H226 lung
[5] = tested on: OVCAR-4 ovarian
[6] = tested on: OVCAR-5 ovarian
[7] = tested on: OVCAR-8 ovarian
[8] = tested on: SR leukemia
[9] = tested on: MCF7 breast
[10] = tested on: NCI-H522 lung

SMILES | TGI [1] [µM] | TGI [2] [µM] | TGI [3] [µM] | TGI [4] | TGI [5] [µM] | TGI [6] [µM] | TGI [7] [µM] | TGI [8] [µM] | GI50 [1] [µM] | GI50 [9] [µM] | TGI [9] [µM] | GI50 [4] [µM] | GI50 [10] [µM] | TGI [10] [µM] | GI50 [5] [µM] | GI50 [6] [µM] | GI50 [2] [µM] | GI50 [3] [µM] | GI50 [7] [µM] | GI50 [8] [µM]
O=c1nc2occc2cn1C1CC(O)C(CO)O1 (configuration not stated) | > 100 | > 100 | > 100 | > 100 µM | > 100 | > 100 | > 100 | > 100 |  |  |  |  |  |  |  |  |  |  |  | 
Clc1ccc2c(NCCCNc3nccc(Nc4ccc(Br)cc4)n3)ccnc2c1 | 4.94 |  |  | 7.37 µM | 2.75 | 3.18 |  |  | 2.13 | 1.39 | 2.94 | 2.74 | 1.93 | 3.52 | 1.39 | 1.63 |  |  |  | 
O=C1CCCC/C(=C/c2ccccc2)N1 | > 100 | > 100 | > 100 | > 100 µM | > 100 | > 100 | > 100 | > 100 |  |  |  |  |  | > 100 |  |  |  |  |  | 
CC(=O)O.CC(=O)O.CC(=O)O.CC(=O)O.CC(=O)O.CC(=O)O.O.[Ti].[Ti] | > 100 | > 100 | > 100 | > 100 µM | > 100 | > 100 | > 100 | > 100 | > 100 |  |  | > 100 | > 100 | > 100 | > 100 | > 100 | > 100 | > 100 | > 100 | > 100
Cc1ccccc1N1C(=O)/C(=C/c2ccc(N(CCC#N)CCC#N)cc2)N=C1c1cc([N+](=O)[O-])ccc1Cl | > 100 | > 100 | > 100 | > 100 µM | > 100 | > 100 |  | > 100 |  |  |  |  |  | > 100 |  |  |  |  |  | 
CC1OC2CC(=O)OC2C2=C1C(=O)c1c(O)cccc1C2=O (configuration not stated) |  | > 100 |  | 0.929 µM | 0.253 | 0.44 | 0.36 |  |  | 0.0183 | 0.0581 | 0.454 | < 0.0168 | 0.0402 | 0.113 | 0.204 | 0.0298 |  | 0.0501 | 
C=C(C)[C@@]12OC3(/C=C/C=C/CCCCC)O[C@@H]1[C@@H]1[C@@H]4O[C@]4(CO)[C@@H](O)[C@]4(O)C(=O)C(C)=C[C@H]4[C@@]1(O3)[C@H](C)[C@H]2OC(=O)c1ccccc1 |  | 1.87 |  | 3.21 µM | 3.82 | 8.62 | 7.08 |  |  | 1.55 | 3.31 | 1.68 | 1.27 | 2.71 | 1.91 | 4.43 | < 0.01 |  | 2.77 | 
Cc1ccc(S(=O)(=O)NCC2CCCCC2=O)cc1 (configuration not stated) | > 100 | > 100 | > 100 | > 100 µM | > 100 | > 100 | > 100 |  |  |  |  |  |  | > 100 |  |  |  |  |  | 
O=C(Nc1nc2ncn(CCI)c2c(=O)[nH]1)c1ccccc1 | > 100 | > 100 | > 100 | 77.4 µM | > 100 | > 100 | > 62.2 | > 100 |  |  |  |  |  | > 100 |  |  |  |  |  | 
S=C(N/N=C/c1ccco1)NC12CC3CC(CC(C3)C1)C2 |  | > 100 | > 100 | > 100 µM | > 100 | > 100 | > 100 |  |  |  |  |  |  | > 100 |  |  |  |  |  | 
O=C1c2ccccc2C(=O)C1(Cl)C1(S(=O)(=O)O)c2ccccc2-c2ccccc21 | > 100 | > 100 | > 100 | > 100 µM | > 100 | > 100 | > 100 | > 100 |  |  |  |  |  | > 100 |  |  |  |  |  | 
CCOC(=O)Oc1c(OC)cc(C(=O)NC2CCc3cc(OC)c(OC)c(OC)c3-c3ccc(SC)c(=O)cc32)cc1OC (configuration not stated) |  | 0.774 | > 70 | 0.0974 µM and 0.0242 µM | > 70 | > 70 | 10.9 | < 0.007 |  |  |  | 0.00709 |  | < 0.007 | 14.8 | > 70 |  | < 0.007 | 0.0155 | 
CCCCN(CCCC)CC(C(=O)Nc1ccc([N+](=O)[O-])cc1[N+](=O)[O-])/C(C)=N\NC(=S)NN (configuration not stated) | > 100 | > 100 | > 100 | > 100 µM |  | > 100 | > 100 |  |  |  |  |  |  | 65.4 |  |  |  |  |  | 
Cc1cc(Br)cc(C)c1NC(=O)C(=O)C(C(=O)c1ccc2ccccc2c1)C1OC(=O)c2ccccc21 (configuration not stated) | 30.2 | > 72.9 | 13.4 | 11.2 µM | > 36.4 | 19.7 | 22.8 | 33.9 |  |  |  |  |  | 22.8 |  |  |  |  |  | 
CSc1nc2c(nc(C)c(=O)n2C2OCC(OC(C)=O)C(OC(C)=O)C2OC(C)=O)c(=O)[nH]1 (configuration not stated) | > 100 | > 100 | > 100 |  | > 100 | > 100 | > 100 | > 100 |  |  |  |  |  | > 100 |  |  |  |  |  | 
CC1OC(n2cc(F)c(=O)[nH]c2=O)C=CC1O (configuration not stated) | > 100 | > 100 | > 100 | > 100 µM | > 100 | > 100 | > 100 | > 100 |  |  |  |  |  | > 100 |  |  |  |  |  | 
CC(C)(C)[SiH]12(OC(C(F)(F)F)(C(F)(F)F)c3ccccc31)OC(C(F)(F)F)(C(F)(F)F)c1ccccc12 |  | 18.2 | 5.41 | 5.05 µM | 19.7 | 6.25 | 28.9 | 6.38 |  |  |  |  |  | 17.7 |  |  |  |  |  | 
Ic1ccc(Nc2nc3nonc3nc2Nc2ccc(I)cc2)cc1 | 0.545 | > 100 | 1.06 |  | > 100 | > 100 | > 100 |  | 0.175 | 0.225 | > 100 |  |  |  | 0.246 | 0.387 | 0.091 | 0.256 | 0.351 | 
COC(=O)C(C(=O)C(=O)Nc1cccc(OC)c1)c1cnc2ccccc2n1 (configuration not stated) | > 100 | > 100 | > 100 | > 100 µM | > 100 | > 100 | > 100 | > 100 |  |  |  |  |  | > 100 |  |  |  |  |  | 
Cc1ccc(SC(C)/C=C/NNC2=NC(c3ccccc3)C(c3ccccc3)=NN2)cc1 (configuration not stated) | 42.5 | > 100 | > 100 | 98.1 µM | > 100 | 89.1 | > 100 | 65.1 |  |  |  |  |  | 88.9 |  |  |  |  |  | 

Source: PubChem BioAssay (NCI)
